Laboratory results published in ChEMBL document CHEMBL1155422, “SAR of tertiary carbinamine derived BACE1 inhibitors: role of aspartate ligand amine pKa in enzyme inhibition” (Bioorg Med Chem Lett, 2010).

Legend:
Beta-secretase 1 [1] = molecular target: T1, Beta-secretase 1 (Homo sapiens, UniProt P56817); assay: Inhibition of human BACE1 expressed in mouse fibroblast cells assessed as inhibition of secreted APPbeta-NF production at pH 7.2; format: cell-based
Beta-secretase 1 [2] = molecular target: T1, Beta-secretase 1; assay: Inhibition of BACE1

T1 sequence (P56817 whole entry): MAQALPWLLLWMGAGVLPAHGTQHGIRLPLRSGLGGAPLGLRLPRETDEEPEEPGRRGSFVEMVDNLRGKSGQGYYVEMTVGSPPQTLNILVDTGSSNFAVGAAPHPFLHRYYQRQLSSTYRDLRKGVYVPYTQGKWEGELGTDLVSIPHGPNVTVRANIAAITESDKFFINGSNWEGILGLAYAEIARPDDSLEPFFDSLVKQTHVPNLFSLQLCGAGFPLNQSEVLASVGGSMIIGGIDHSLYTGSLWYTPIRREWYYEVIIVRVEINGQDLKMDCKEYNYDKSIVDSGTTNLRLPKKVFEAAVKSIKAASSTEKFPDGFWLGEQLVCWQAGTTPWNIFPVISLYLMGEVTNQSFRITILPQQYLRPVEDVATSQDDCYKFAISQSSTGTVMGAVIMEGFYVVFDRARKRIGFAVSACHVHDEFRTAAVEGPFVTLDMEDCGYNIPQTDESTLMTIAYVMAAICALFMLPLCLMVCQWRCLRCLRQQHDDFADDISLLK

| SMILES | IC50 (Beta-secretase 1 [1]) | IC50 (Beta-secretase 1 [2]) |
| --- | --- | --- |
| C[C@@H](NC(=O)c1cc(COC(=O)C(C)(N)Cc2ccccc2)cc(N(C)S(C)(=O)=O)c1)c1ccc(F)cc1 (some centres undefined) | 0.163 µM | 0.019 µM |
| C[C@@H](NC(=O)c1cc(CCC[C@](N)(CO)Cc2ccccc2)cc(N(C)S(C)(=O)=O)c1)c1ccc(F)cc1 | – | 22.4 µM |
| C[C@@H](NC(=O)c1cc(OCCC(N)(CO)Cc2ccccc2)cc(N(C)S(C)(=O)=O)c1)c1ccc(F)cc1 (some centres undefined) | – | 70.5 µM |
| C[C@@H](NC(=O)c1cc(N(C)S(C)(=O)=O)cc(S(=O)(=O)CCC(N)(CO)Cc2ccccc2)c1)c1ccc(F)cc1 (some centres undefined) | – | > 100 µM |
| CNC(CO)(COC(=O)c1cc(C(=O)N[C@H](C)c2ccc(F)cc2)cc(N(C)S(C)(=O)=O)c1)Cc1ccccc1 (some centres undefined) | – | > 100 µM |
| C[C@@H](NC(=O)c1cc(C(=O)OCC(O)(CN)Cc2ccccc2)cc(N(C)S(C)(=O)=O)c1)c1ccc(F)cc1 (some centres undefined) | – | 22.2 µM |
| C[C@@H](NC(=O)c1cc(C(=O)NCC(O)(CO)Cc2ccccc2)cc(N(C)S(C)(=O)=O)c1)c1ccc(F)cc1 (some centres undefined) | – | 24.9 µM |
| C[C@@H](NC(=O)c1cc(NCCC(N)(CO)Cc2ccccc2)cc(N(C)S(C)(=O)=O)c1)c1ccc(F)cc1 (some centres undefined) | – | > 100 µM |
| C[C@@H](NC(=O)c1cc(-c2n[nH]c([C@](C)(N)Cc3ccccc3)n2)cc(N(C)S(C)(=O)=O)c1)c1ccc(F)cc1 | 4.74 µM | 0.822 µM |
| C[C@@H](NC(=O)c1cc(SCCC(N)(CO)Cc2ccccc2)cc(N(C)S(C)(=O)=O)c1)c1ccc(F)cc1 (some centres undefined) | – | > 100 µM |
| C[C@@H](NC(=O)c1cc(-c2nnc([C@](C)(N)Cc3ccccc3)s2)cc(N(C)S(C)(=O)=O)c1)c1ccc(F)cc1 | – | 29.9 µM |
| C[C@@H](NC(=O)c1cc(-c2ncc([C@](C)(N)Cc3ccccc3)o2)cc(N(C)S(C)(=O)=O)c1)c1ccc(F)cc1 | 0.005 µM | 0.007 µM |
| COCC(N)(COCc1cc(C(=O)N[C@H](C)c2ccc(F)cc2)cc(N(C)S(C)(=O)=O)c1)Cc1ccccc1 (mixture of isomers) | – | > 100 µM |

Now from value to compound:

| IC50 (Beta-secretase 1 [1]) | IC50 (Beta-secretase 1 [2]) | SMILES |
| --- | --- | --- |
| 0.684 µM | 0.31 µM | C[C@@H](NC(=O)c1cc(COC(=O)C(N)(CO)Cc2ccccc2)cc(N(C)S(C)(=O)=O)c1)c1ccc(F)cc1 (some centres undefined) |
| – | 5.72 µM | C[C@@H](NC(=O)c1cc(CNC(=O)C(C)(N)Cc2ccccc2)cc(N(C)S(C)(=O)=O)c1)c1ccc(F)cc1 (some centres undefined) |
| – | 1.83 µM | C[C@@H](NC(=O)c1cc(-c2nc([C@](C)(N)Cc3ccccc3)no2)cc(N(C)S(C)(=O)=O)c1)c1ccc(F)cc1 |
| 3.47 µM | 10.1 µM | C[C@@H](NC(=O)c1cc(CNC[C@](N)(CO)Cc2ccccc2)cc(N(C)S(C)(=O)=O)c1)c1ccc(F)cc1 |
| – | 18.1 µM | C[C@@H](NC(=O)c1cc(CNC(=O)C(N)(CO)Cc2ccccc2)cc(N(C)S(C)(=O)=O)c1)c1ccc(F)cc1 (some centres undefined) |
| – | 10.8 µM | C[C@@H](NC(=O)c1cc(C(=O)NCC(N)(CO)Cc2ccccc2)cc(N(C)S(C)(=O)=O)c1)c1ccc(F)cc1 (some centres undefined) |
| 0.58 µM | 1.37 µM | C[C@@H](NC(=O)c1cc(COC[C@](N)(CO)Cc2ccccc2)cc(N(C)S(C)(=O)=O)c1)c1ccc(F)cc1 |
| – | 16.3 µM | C[C@@H](NC(=O)c1cc(N(C)S(C)(=O)=O)cc(-n2cc([C@](C)(N)Cc3ccccc3)nn2)c1)c1ccc(F)cc1 |
| 1.71 µM | 10.1 µM | C[C@@H](NC(=O)c1cc(COC[C@H](N)Cc2ccccc2)cc(N(C)S(C)(=O)=O)c1)c1ccc(F)cc1 |
| – | 2.06 µM | C[C@@H](NC(=O)c1cc(-c2noc([C@](C)(N)Cc3ccccc3)n2)cc(N(C)S(C)(=O)=O)c1)c1ccc(F)cc1 |
| 0.138 µM | 0.344 µM | C[C@@H](NC(=O)c1cc(COC[C@](C)(N)Cc2ccccc2)cc(N(C)S(C)(=O)=O)c1)c1ccc(F)cc1 |
| > 20 µM | 0.925 µM | C[C@@H](NC(=O)c1cc(COCC(N)(Cc2ccccc2)C(F)F)cc(N(C)S(C)(=O)=O)c1)c1ccc(F)cc1 (mixture of isomers) |
| 0.004 µM | 0.02 µM | C[C@@H](NC(=O)c1cc(-c2ccc(C(C)(N)Cc3ccccc3)o2)cc(N(C)S(C)(=O)=O)c1)c1ccc(F)cc1 (mixture of isomers) |
| – | 22 µM | CCC(N)(COCc1cc(C(=O)N[C@H](C)c2ccc(F)cc2)cc(N(C)S(C)(=O)=O)c1)Cc1ccccc1 (mixture of isomers) |
| 0.432 µM | 0.997 µM | C[C@@H](NC(=O)c1cc(COCC(N)(CF)Cc2ccccc2)cc(N(C)S(C)(=O)=O)c1)c1ccc(F)cc1 (mixture of isomers) |
